In series [1] the test system is U937. As to the kind of experiment: CFSE-based cytotoxic activity assay, U937. In kind it is cell-based. Conditions: U937, 0.01-10 μM, 3 days, FIG. 5A.
Experimental: (§5) CFSE-based cytotoxic activity assay. […] The same experiments were repeated in the presence of uridine 100 μM. Cells were harvested and 1 μg/ml of propidium iodide was added to assign the ratio of cell death. The percentage of specific lysis was calculated as described and in accordance with the following equation: [dead targets in sample (%)−spontaneously dead targets (%))/(100−spontaneously dead targets (%))]×100. Spontaneous release was obtained by incubating cell lines in medium supplemented with the corresponding percentage of DMSO used for the dilution of compounds, whereas maximal release was obtained after treatment with triton solution.
In series [2] the test system is MDA MB231 (breast cancer cells). In words: Cytotoxicity in human cancer cell lines, MDA MB231. The format is cell-based. Conditions: MDA-MB-231, MDA MB231, 72 h. The source says:
(§1) In the last phase of their study, the present inventors evaluated the effects of our hDHODH inhibitors on a series of human cancer cell lines.

Series [3] deals with PANC-1 (pancreatic cancer cells). In words: Cytotoxicity in human cancer cell lines, PANC-1. In kind it is cell-based. Particulars: PANC-1, 72 h.
Text: as §1

Series [4] has as its system Jurkat T cells. In words: Proliferation assay, Jurkat T cells (Hoechst 33258 DNA content). The format is cell-based. Conditions: 72 h.
Experimental: Cells were maintained at 37° C. in a 5% CO2 humidified atmosphere. Cells were passaged every 2-3 days and discarded after 15 passages. […] Final dilutions were made in culture medium.
Proliferation assay. […] IC50 values were determined using nonlinear regression plots on GraphPad Prism6. Values are means±SE of three independent experiments. Where indicated, the antiproliferative effect was evaluated in the presence of 100 μM uridine.^32
Series [5] relates to THP1. In words: Differentiation assay, THP1 (CD14). In kind it is cell-based, human. The protocol:
(§2) Cell lines and drug treatment.
(§3) Flow cytometric analysis. The expression of CD11b (PE-conjugated BD Bioscience San Jose, CA, USA), and CD14 (FITC-conjugated Beckam Coulter CA, USA), cell surface molecules was determined by flow cytometry analysis. […] Samples were acquired on a FACS Calibur and dead cells were excluded from the analyses, according to the use of propidium iodide (Sigma-Aldrich, Milan, Italy). Data were processed using Kaluza software version 1.2 (Beckman Coulter Fullerton, CA).
(§4) Differentiation assay. 1×10^4 cells (THP1 and U937), were plated in 96 well round-bottom plates and DHODH inhibitors were added, from 0.1 μM to 10 μM, to a volume of 200 μl of medium. The differentiation kinetics was monitored from day 1 to day 4 for U937, and to day 5 for THP1. Cells were washed and either stained with CD11b (U937), or with CD11b and CD14 (THP1), as described above. The differentiation assay was also performed in the presence of uridine 100 μM and analyzed on day 3

Series [6] has as its system PHA-stimulated PBMC. As to the kind of experiment: Immunosuppression assay, PHA-stimulated PBMC proliferation. In kind it is cell-based.
Experimental: Immunosuppression assay. PBMCs were isolated via the Ficoll/Isopaque (Lymphoprep), density gradient centrifugation of buffy coat leukapheresis residues from the fresh blood samples of healthy donors. Purified cells were grown and maintained in culture medium at 37° C. in a 5% CO2 humidified atmosphere. […] IC50 values were determined using nonlinear regression plots on GraphPad Prism6. Values are means±SE of three independent experiments. Where indicated, the antiproliferative effect was evaluated in the presence of 100 μM uridine.
Another series in a line: Serum stability. In kind it is in vitro ADME. Particulars: 37° C.
For series [7], the system named is A2780 (ovarian cancer cells). As to the kind of experiment: Cytotoxicity in human cancer cell lines, A2780. The format is cell-based. Particulars: A2780, 72 h.
Text: as §1

For series [8], the system named is HEPG2 (liver hepatocellular cancer cells). In words: Cytotoxicity in human cancer cell lines, HEPG2. The format is cell-based.
Text: as §1

For series [9], the system named is HCT-116 (colon cancer cells). As to the kind of experiment: Cytotoxicity in human cancer cell lines, HCT-116. Conditions: HCT-116, 72 h. The format is cell-based.
Text: as §1

For series [10] the following is noted: 24 h, pH 7.4.
Experimental: Solubility assay at pH 7.4. […] The samples were shaken in an orbital shaker at 25° C. for 24 h. These suspensions were filtered through a PTFE 0.45 m filter (VWR), and the solutions were chromatographically analyzed. […] LC analysis was performed using an Agilent Zorbax SB-Phenyl Column (4.6×250, 5 μm). […] The analyses started with 40% of eluent B and the following gradient profile was used: (time min, % B) 18.0, 100%; 26.0, 100%; 28.0, 40%. […] Single compound quantification was made using the relative calibration curve which was obtained by analyzing standard solutions in MeOH. Solubility is expressed as μM concentration of the saturated solution.
Series [11] relates to THP1. As to the kind of experiment: CFSE-based cytotoxic activity assay, THP1. In kind it is cell-based. Conditions: THP1, 0.01-10 μM, 3 days, FIG. 5A.
Experimental: as §5
The subject of series [12] is U937. In words: Differentiation assay, U937 (CD11b). The format is cell-based, human. The procedure:
as §2, §3, §4

A short description of series [13]: Protein binding in vitro (ultrafiltration). In kind it is in vitro ADME. Particulars: human serum protein binding.
Experimental: Protein binding in vitro. Free- and protein-bound drug separation was achieved by ultrafiltration using commercially available membrane systems (Centrifree ultrafiltration devices with ultracel YM-T membrane, Merck). A solution of selected compound in DMSO was added to human serum (sterile-filtered from human male AB plasma, Sigma-Aldrich), to obtain the desired final concentration with 2% of co-solvent. 1 mL of the solution obtained from the sample reservoir of the ultrafiltration device was gently shaken in an orbital shaker at 37° C. for 1 h. […] The concentrations of the compounds in the ultrafiltrate and filtrate were determined using reverse-phase HPLC and the chromatographic conditions described above. […] The recovery of the ultrafiltration process was calculated in order to discover whether any compound was lost during ultrafiltration, considering the limited solubility of tested compounds.
The target of another series is recombinant hDHODH (Homo sapiens (Human), UniProt Q02127). As to the kind of experiment: hDHODH inhibition assay (DCIP reduction). The format is biochemical. The protocol: Protein expression and purification. […] The vector produces hDHODH as an N-terminal GST-fusion protein. The plasmid pFN2A-hDHODH was transformed into BL21 (DE3), pyrD E. coli cells for protein production. Cells were grown at 37° C. in LB medium supplemented with 0.1 mM flavin mononucleotide. […] Triton X-100 was added to the lysate, to a final concentration of 1%, before centrifugation at 14000×g for 40 min at 4° C. The clarified supernatant was incubated with DNase I (Sigma Aldrich), for 30 min at room temperature, supplemented with 2 mM DTT and filtered through a 0.45 μm syringe filter. The GST-fused enzyme was purified from the bacterial lysate using affinity chromatography on immobilized glutathione-sepharose columns and fast protein liquid chromatography (FPLC). The GST tag was not removed for further studies.
Chain of recombinant hDHODH (Q02127 31-395): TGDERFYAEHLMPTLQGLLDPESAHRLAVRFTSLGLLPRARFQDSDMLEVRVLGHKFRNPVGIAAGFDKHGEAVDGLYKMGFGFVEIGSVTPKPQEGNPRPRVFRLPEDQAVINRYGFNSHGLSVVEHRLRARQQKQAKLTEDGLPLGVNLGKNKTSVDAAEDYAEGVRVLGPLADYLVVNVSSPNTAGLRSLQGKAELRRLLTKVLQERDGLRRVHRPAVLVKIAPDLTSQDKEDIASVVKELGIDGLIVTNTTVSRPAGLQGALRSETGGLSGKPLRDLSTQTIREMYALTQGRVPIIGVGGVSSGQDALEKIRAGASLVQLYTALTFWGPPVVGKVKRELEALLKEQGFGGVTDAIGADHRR
hDHODH inhibition assay. Inhibitory activity was assessed by monitoring the reduction of 2,6-dichloroindophenol (DCIP), which is associated with the oxidation of dihydroorotate as catalyzed by the DHODH enzyme. The enzyme was preincubated for five minutes at 37° C. in Tris-buffer solution (pH 8.0), with coenzyme Q10 (100 μM), with the compounds to be tested used at different concentrations (final DMSO concentration 0.1% v/v), with DCIP (50 μM). The reaction was initiated by the addition of DHO (500 μM), and the reduction was monitored at λ=650 nm. […] Values are means±SE of three independent experiments.

The nature of series [14]: log D (pH 7.4) shake-flask. In kind it is physicochemical. Particulars: n-octanol/PBS.
Experimental: C log P and log D (pH 7.4). […] The partition coefficients between n-octanol and PBS at pH 7.4 (log D^7,4), were obtained using the shake-flask technique at room temperature. In the shake-flask experiments, 50 mM of phosphate buffered saline pH 7.4 was used as the aqueous phase. The organic (n-octanol), and aqueous phases were mutually saturated by shaking for 4 h. The compounds were solubilized in the buffered aqueous phase at the highest concentration compatible with solubility and appropriate amounts of n-octanol were added. The two phases were shaken for about 20 min, by which time the partitioning equilibrium of solutes had been reached, and then centrifuged (10000 rpm, 10 min). The concentration of the solutes was measured in the aqueous phase by UV spectrophotometer (Varian Cary 50BIO); absorbance values (recorded for each compound at the wavelength of maximum absorption), were interpolated in calibration curves obtained using standard solutions of the compounds (r^2>0.99). Each log D value is an average of at least six measurements.
Series [15] deals with PHA-stimulated PBMC. Particulars: inhibition of PHA-stimulated PBMC proliferation; value from ref. 29; read-out: Immunosuppression IC50 ± SE; cited from earlier work.
Series [16] relates to Jurkat T cells. As to the kind of experiment: Cytotoxicity assay, Jurkat T cells (CellTox green). In kind it is cell-based. Particulars: 72 h, concentration causing significant (≥30%) cytotoxic effect.
Experimental: Cell culture and drug treatment. […] Cells were maintained at 37° C. in a 5% CO2 humidified atmosphere. Cells were passaged every 2-3 days and discarded after 15 passages. […] Final dilutions were made in culture medium.
Cytotoxicity assay. […] Cells (5×10^3/well), were seeded in a white-opaque 96-well plate and exposed to increasing concentrations (0.001-100 μM), of each compound or vehicle (DMSO), for 72 h. Values are means±SE of three independent experiments and represent the concentrations that cause significant (≥30%), cytotoxic effects.
The mark [17] stands for this setting: with uridine, read-out: Cytotoxicity IC50 with Uridine.
Where [18] appears, read: in vitro assay, means ± SE of three experiments, read-out: hDHODH IC50 ± SE.
Setting [19] is: enzymatic assay, values in text, read-out: hDHODH IC50.

≈ marks a conversion by molar mass, not a printed value. Read-outs that look alike come from different tables or passages of the source.

Experimental for Serum stability: Serum stability. A solution of the selected compound in DMSO was added to human serum (sterile-filtered from human male AB plasma, Sigma-Aldrich), to obtain the desired final concentration with 2% of co-solvent. The resulting solution was shaken in an orbital shaker at 37° C. for 24 h. At appropriate time intervals (0, 0.5, 1, 4 and 24 hours), 300 μL of the reaction mixture were withdrawn and added to 600 μL of trifluoroacetic acid (TFA), 0.1% in acetonitrile in order to deproteinize the serum. The samples were vortexed, sonicated for 3 min and then centrifuged for 5 min at 2500×g. The clear supernatant was filtered and analyzed by RP-HPLC. HPLC analyses were performed on a HP 1100 chromatograph system (Agilent Technologies, Palo Alto, CA, USA), equipped with a quaternary pump (model G1311A), a membrane degasser (G1379A), and a diode-array detector (DAD) (model G1315B), integrated into the HP1100 system. Data analyses were processed using a HP ChemStation system (Agilent Technologies). The analytical column was a ZORBAX Eclipse XDB-C18 (4.6×150 mm, 5 μm, Agilent Technologies). The mobile phase consisted of acetonitrile 0.10% TFA/0.1% TFA 70/30 at flow-rate=1.0 mL/min. […] Single compound quantification was achieved using calibration curves that were obtained by analyzing standard solutions. The results are expressed as % of unmodified parent compound at 24 h.

As to `Cc1c(-c2ccc(-c3ccccc3F)cc2)nc2ccc(F)cc2c1C(=O)O` [Brequinar, brequinar], the “cytotoxicity” value in the series on U937 [1] was “strong and concentration-dependent cytotoxicity”; with THP1 [11], “strong and concentration-dependent cytotoxicity”. Besides, the IC50 in series [2] (read-out: Cytotoxicity IC50) is 1.3 µM; in series [2] (setting [17]), more than 100 µM; in [3] (read-out: Cytotoxicity IC50), 0.28 µM; in series [3] (setting [17]) it was less than 0.1 µM; with Jurkat T cells [4] (in the presence of 100 μM uridine, read-out: Proliferation IC50 ± SE + Uridine), 94.2 ± 2.08 µM; with Jurkat T cells [4] (read-out: Proliferation IC50 ± SE) it was 0.91 ± 0.07 µM. The IC50 in series [7] (read-out: Cytotoxicity IC50) is less than 0.1 µM; in series [7] (setting [17]) it was 15.5 µM; in series [8] (HEPG2, 72 h, with uridine, read-out: Cytotoxicity IC50 with Uridine), more than 10 µM; in [8] (HepG2, 72 h, read-out: Cytotoxicity IC50), 0.046 µM; in [9] (read-out: Cytotoxicity IC50) it was 0.097 µM; in series [9] (setting [17]), 3 µM. Also, in the series on THP1 [5] (THP1, FIG. 6B), the “myeloid differentiation, CD14 expression” value was “strong differentiation”. Also, the “differentiation when uridine is added” value in the series on THP1 [5] (THP1, uridine 100 μM, day 3, FIG. 6D) is “reversed”; with U937 [12] (U937, uridine 100 μM, day 3, FIG. 6C), “reversed”. Further, in the series with PHA-stimulated PBMC [6], the “antiproliferative effect on PHA-activated PBMCs, times greater than teriflunomide” value worked out at 10 times. In addition, in “Serum stability”, the “% compound after 24 h in human serum” value worked out at 98%. Moreover, the “Solubility in PBS with 2% DMSO” value in [10] amounted to 449 µM. For the same compound, in the series on U937 [12] (U937, FIG. 6A), the “myeloid differentiation, CD11b expression” value is reported as “strong differentiation”. Moreover, in series [13], the “% bound” value is given as 98.83%.

As for `Cn1nc(O)c(C(=O)Nc2c(F)c(F)c(-c3ccccc3)c(F)c2F)n1` [Compound 2], the IC50 at recombinant hDHODH (setting [18]) stood at 0.045 ± 0.013 µM.

Consider `O=C(Nc1c(F)c(F)c(-c2ccccc2)c(F)c1F)c1c(O)nn2ccccc12` [Compound 4, 2-Hydroxy-N-(2,3,5,6-tetrafluoro-[1,1′-biphenyl]-4-yl)pyrazolo[1,5-a]pyridine-3-carboxamide], for which the “times more potent than teriflunomide (hDHODH)” value on recombinant hDHODH (enzymatic assay, ratio of IC50) is recorded as 320 times.

As to `Cc1cccc2c(C(=O)Nc3c(F)c(F)c(-c4ccccc4)c(F)c3F)c(O)nn12` [Compound 5, 2-Hydroxy-7-methyl-N-(2,3,5,6-tetrafluoro-[1,1′-biphenyl]-4-yl)pyrazolo[1,5-a]pyridine-3-carboxamide], the IC50 at recombinant hDHODH (setting [19]) was 0.0043 µM.

`Cn1c(=O)c(C(=O)Nc2c(F)c(F)c(-c3ccccc3)c(F)c2F)c2ccccn21` [Compound 7, 1-Methyl-2-oxo-N-(2,3,5,6-tetrafluoro-[1,1′-biphenyl]-4-yl)-1,2-dihydropyrazolo[1,5-a]pyridine-3-carboxamide]: on recombinant hDHODH (setting [18]), the IC50 was more than 5 µM.

As to `O=C(Nc1ccc(Oc2ccccc2)cc1)c1c(O)nn2ccccc12` [Compound 8, 2-Hydroxy-N-(4-phenoxyphenyl)pyrazolo[1,5-a]pyridine-3-carboxamide], the IC50 at recombinant hDHODH (setting [19]) was 0.76 µM; at recombinant hDHODH (setting [18]), 0.76 ± 0.136 µM.

`Cc1cc(NC(=O)c2c(O)nn3ccccc23)ccc1Oc1ccccc1` [Compound 9, 2-Hydroxy-N-(3-methyl-4-phenoxyphenyl)pyrazolo[1,5-a]pyridine-3-carboxamide]: at recombinant hDHODH (setting [18]), the IC50 turned out to be 0.48 ± 0.031 µM.

Take `Cc1cc(Oc2ccccc2)c(C)cc1NC(=O)c1c(O)nn2ccccc12` [Compound 10, N-(2,5-Dimethyl-4-phenoxyphenyl)-2-hydroxypyrazolo[1,5-a]pyridine-3-carboxamide]: the IC50 at recombinant hDHODH (setting [19]) and on recombinant hDHODH (setting [18]) was 0.043 µM each time.

As for `O=C(Nc1c(F)c(F)c(-c2ccccc2)c(F)c1F)c1c(O)nn2c1CCCC2` [Compound 30, 2-Hydroxy-N-(2,3,5,6-tetrafluoro-[1,1′-biphenyl]-4-yl)-4,5,6,7-tetrahydropyrazolo[1,5-a]pyridine-3-carboxamide], the IC50 at recombinant hDHODH (setting [19]) came out at 0.0059 µM.

Take `O=C(Nc1c(F)c(F)c(-c2cccc(F)c2)c(F)c1F)c1c(O)nn2ccccc12` [Compound 32, 2-Hydroxy-N-(2,3,3′,5,6-pentafluoro-[1,1′-biphenyl]-4-yl)pyrazolo[1,5-a]pyridine-3-carboxamide]: the IC50 at recombinant hDHODH (setting [19]) was 0.002 µM. Moreover, in [14], the logD is more than 3.

As to `O=C(Nc1c(F)c(F)c(-c2cccc(C(F)(F)F)c2)c(F)c1F)c1c(O)nn2ccccc12` [Compound 33, 2-Hydroxy-N-(2,3,5,6-tetrafluoro-3′-(trifluoromethyl)-[1,1′-biphenyl]-4-yl)pyrazolo[1,5-a]pyridine-3-carboxamide], at recombinant hDHODH (setting [19]), the IC50 came to 0.0023 µM. In addition, the pH-dependent lipophilicity (logD) in [14] is more than 3.

`C/C(O)=C(\C#N)C(=O)Nc1ccc(C(F)(F)F)cc1` [Teriflunomide, teriflunomide]: the IC50 in the series with PHA-stimulated PBMC [15] is 54.3 µM. For the same compound, the “Cytotoxicity (effect ≥30%)” value in the series with Jurkat T cells [16] came out at 53 ± 3 µM. Further, the “Solubility in PBS” value in series [10] worked out at 2692 µM (≈ 727 µg/mL).

Usually logD stands for the decadic logarithm of the distribution of all forms, ionised or not, between an organic phase and buffer at a given pH. Read a high logD as a more lipophilic compound.

The record behind these values is patent publication US12162877B2, “Human dihydroorotate dehydrogenase (hDHODH) inhibitors and their use in targeting oncological diseases sensitive to pyrimidine starvation” (DRUG DISCOVERY AND CLINIC S.R.L., priority 2018, dated 2024).
